Measurements from US12534452B2, “N-(1H-imidazol-2-yl)benzamide compound and pharmaceutical composition comprising the same as active ingredient” (KAINOS MEDICINE, INC., priority 2019, dated 2026).

Molecular target: IRAK4 (Homo sapiens (Human), UniProt Q9NWZ3)
Assay: In vitro IRAK4 phosphorylation activity assay
Assay type: biochemical
Conditions: [γ-33P]-ATP, myelin basic protein substrate, 40 minutes at room temperature; categories
Summary of the method: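 Radiometric filter-binding assay, no compound–kinase preincubation; 8 mM MOPS pH 7.0, 0.2 mM EDTA, 10 mM Mg acetate, 0.33 mg/mL myelin basic protein substrate, [γ-33P]-ATP. Reaction 40 min at room temperature, stopped with phosphoric acid, scintillation counting; IC50 reported in categories.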

IRAK4, sequence (Q9NWZ3 whole entry): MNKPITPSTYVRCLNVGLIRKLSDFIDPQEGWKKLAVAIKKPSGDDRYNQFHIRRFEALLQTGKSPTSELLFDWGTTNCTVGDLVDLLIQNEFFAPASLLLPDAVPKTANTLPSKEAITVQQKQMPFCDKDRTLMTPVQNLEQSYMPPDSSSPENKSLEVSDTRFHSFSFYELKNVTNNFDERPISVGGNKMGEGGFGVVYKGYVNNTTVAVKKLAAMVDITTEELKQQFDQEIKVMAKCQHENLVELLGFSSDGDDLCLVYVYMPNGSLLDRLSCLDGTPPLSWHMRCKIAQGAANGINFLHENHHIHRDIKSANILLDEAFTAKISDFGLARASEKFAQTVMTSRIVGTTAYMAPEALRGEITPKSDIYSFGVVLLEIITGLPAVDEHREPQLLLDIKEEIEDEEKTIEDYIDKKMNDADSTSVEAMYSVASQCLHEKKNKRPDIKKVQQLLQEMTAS

IC50 | SMILES
< 50 nM | Cn1cc(-c2cccc(C(=O)Nc3nc(CCCC(=O)N4CCC[C@H](N)C4)cn3-c3ccccc3)c2)cn1 [Example 211, (S)—N-(4-(4-(3-aminopiperidin-1-yl)-4-oxobutyl)-1-phenyl-1H-imidazol-2-yl)-3-(1-methyl-1H-pyrazol-4-yl)benzamide]
50 to 100 nM | CN(C(=O)CCCc1cn(-c2ccccc2)c(NC(=O)c2cccc(-c3cnn(C)c3F)c2)n1)C1CC1 [Example 233, N-(4-(4-(cyclopropyl(methyl)amino)-4-oxobutyl)-1-phenyl-1H-imidazol-2-yl)-3-(5-fluoro-1-methyl-1H-pyrazol-4-yl)benzamide]
< 50 nM | Cn1cc(-c2cccc(C(=O)Nc3nc(CCCC(=O)N4CCN(c5ccccc5)CC4)cn3-c3ccccc3)c2)cn1 [Example 188, 3-(1-methyl-1H-pyrazol-4-yl)-N-(4-(4-oxo-4-(4-phenylpiperazin-1-yl)butyl)-1-phenyl-1H-imidazol-2-yl)benzamide]
< 50 nM | Cn1cc(-c2cccc(C(=O)Nc3nc(CCCC(=O)NCC4CCOC4)cn3-c3ccccc3)c2)cn1 (centres unmarked) [Example 180, 3-(1-methyl-1H-pyrazol-4-yl)-N-(4-(4-oxo-4-(((tetrahydrofuran-3-yl)methyl)amino)butyl)-1-phenyl-1H-imidazol-2-yl)benzamide]
< 50 nM | COC[C@@H]1CCCN1NC(=O)CCCCc1cn(-c2ccccc2)c(NC(=O)c2cccc(-c3cn[nH]c3)c2)n1 [Example 84, (S)—N-(4-(5-((2-(methoxymethyl)pyrrolidin-1-yl)amino)-5-oxopentyl)-1-phenyl-1H-imidazol-2-yl)-3-(1H-pyrazol-4-yl)benzamide]
< 50 nM | CNC(=O)CCCCCc1cn(-c2ccccc2)c(NC(=O)c2cccc(-c3cn[nH]c3)c2)n1 [Example 94, N-(4-(6-(methylamino)-6-oxohexyl)-1-phenyl-1H-imidazol-2-yl)-3-(1H-pyrazol-4-yl)benzamide]
< 50 nM | Cn1cc(-c2cccc(C(=O)Nc3nc(CCCCCCN4CCCCCC4)cn3-c3ccccc3)c2)cn1 [Example 223, N-(4-(6-(azepan-1-yl)hexyl)-1-phenyl-1H-imidazol-2-yl)-3-(1-methyl-1H-pyrazol-4-yl)benzamide]
< 50 nM | COC[C@H]1CCCN1NC(=O)CCCCc1cn(-c2ccccc2)c(NC(=O)c2cccc(-c3cn[nH]c3)c2)n1 [Example 85, (R)—N-(4-(5-((2-(methoxymethyl)pyrrolidin-1-yl)amino)-5-oxopentyl)-1-phenyl-1H-imidazol-2-yl)-3-(1H-pyrazol-4-yl)benzamide]
< 50 nM | CN1CCCN(C(=O)CCc2cn(-c3ccccc3)c(NC(=O)c3cccc(-c4cnn(C)c4)c3)n2)CC1 [Example 195, N-(4-(3-(4-methyl-1,4-diazepan-1-yl)-3-oxopropyl)-1-phenyl-1H-imidazol-2-yl)-3-(1-methyl-1H-pyrazol-4-yl)benzamide]
< 50 nM | Cn1cc(-c2cccc(C(=O)Nc3nc(CCCC(=O)N4CCCC[C@@H]4CCO)cn3-c3ccccc3)c2)cn1 [Example 174, (R)—N-(4-(4-(2-(2-hydroxyethyl)piperidin-1-yl)-4-oxobutyl)-1-phenyl-1H-imidazol-2-yl)-3-(1-methyl-1H-pyrazol-4-yl)benzamide]
< 50 nM | O=C(Nc1nc(CCC[N+]2([O-])CCOCC2)cn1-c1ccccc1)c1cccc(-c2cn[nH]c2)c1 [Example 126, 4-(3-(2-(3-(1H-pyrazol-4-yl)benzamido)-1-phenyl-1H-imidazol-4-yl)propyl)morpholine 4-oxide]
< 50 nM | CN1CCN(C(=O)CCCc2cn(-c3ccccc3)c(NC(=O)c3cccc(-c4cnn(C)c4)c3)n2)CC1 [Example 143, 3-(1-methyl-1H-pyrazol-4-yl)-N-(4-(4-(4-methylpiperazin-1-yl)-4-oxobutyl)-1-phenyl-1H-imidazol-2-yl)benzamide]
< 50 nM | CN1CCN(C(=O)CCc2cn(-c3ccccc3)c(NC(=O)c3cccc(-c4cnn(C)c4)c3)n2)CC1 [Example 194, 3-(1-methyl-1H-pyrazol-4-yl)-N-(4-(3-(4-methylpiperazin-1-yl)-3-oxopropyl)-1-phenyl-1H-imidazol-2-yl)benzamide]
< 50 nM | Cn1cc(-c2cccc(C(=O)Nc3nc(CCCC(=O)NC4CCOCC4)cn3-c3ccccc3)c2)cn1 [Example 157, 3-(1-methyl-1H-pyrazol-4-yl)-N-(4-(4-oxo-4-((tetrahydro-2H-pyran-4-yl)amino)butyl)-1-phenyl-1H-imidazol-2-yl)benzamide]
> 100 nM | O=C(CCc1cn(-c2ccccc2)c(NC(=O)c2cccc(-c3cn[nH]c3)c2)n1)NN1CCCC1 [Example 27, N-(4-(3-oxo-3-(pyrrolidin-1-ylamino)propyl)-1-phenyl-1H-imidazol-2-yl)-3-(1H-pyrazol-4-yl)benzamide]
< 50 nM | Cn1cc(-c2cccc(C(=O)Nc3nc(CCCCC(=O)N4CCC(N)CC4)cn3-c3ccccc3)c2)cn1 [Example 213, N-(4-(5-(4-aminopiperidin-1-yl)-5-oxopentyl)-1-phenyl-1H-imidazol-2-yl)-3-(1-methyl-1H-pyrazol-4-yl)benzamide]

The next lines start with the compound.

SMILES | IC50
CN1CCN(C(=O)CCCc2cn(-c3ccccc3)c(NC(=O)c3cccc(-c4ccc5[nH]ncc5c4)c3)n2)CC1 [Example 247, 3-(1H-indazol-5-yl)-N-(4-(4-(4-methylpiperazin-1-yl)-4-oxobutyl)-1-phenyl-1H-imidazol-2-yl)benzamide] | < 50 nM
COC[C@H]1CCCN1NC(=O)Cc1cn(-c2ccccc2)c(NC(=O)c2cccc(-c3cn[nH]c3)c2)n1 [Example 45, (R)—N-(4-(2-((2-(methoxymethyl)pyrrolidin-1-yl)amino)-2-oxoethyl)-1-phenyl-1H-imidazol-2-yl)-3-(1H-pyrazol-4-yl)benzamide] | 50 to 100 nM
O=C(CCc1cn(-c2ccccc2)c(NC(=O)c2cccc(-c3cn[nH]c3)c2)n1)Nc1ccc(F)cc1F [Example 16, N-(4-(3-((2,4-difluorophenyl)amino)-3-oxopropyl)-1-phenyl-1H-imidazol-2-yl)-3-(1H-pyrazol-4-yl)benzamide] | < 50 nM
O=C(CCCc1cn(-c2ccccc2)c(NC(=O)c2cccc(-c3cn[nH]c3)c2)n1)Nc1ccc(F)cc1F [Example 66, N-(4-(4-((2,4-difluorophenyl)amino)-4-oxobutyl)-1-phenyl-1H-imidazol-2-yl)-3-(1H-pyrazol-4-yl)benzamide] | < 50 nM
O=C(CCc1cn(-c2ccccc2)c(NC(=O)c2cccc(-c3cn[nH]c3)c2)n1)Nc1ccc(F)cc1 [Example 10, N-(4-(3-((4-fluorophenyl)amino)-3-oxopropyl)-1-phenyl-1H-imidazol-2-yl)-3-(1H-pyrazol-4-yl)benzamide] | 50 to 100 nM
O=C(Nc1nc(CCCCCCN2CCCCC2)cn1-c1ccccc1)c1cccc(-c2ccncc2)c1 [Example 268, N-(1-phenyl-4-(6-(piperidin-1-yl)hexyl)-1H-imidazol-2-yl)-3-(pyridin-4-yl)benzamide] | 50 to 100 nM
O=C(Nc1nc(CCCN2CCCCC2)cn1-c1ccccc1)c1cccc(-c2cn[nH]c2)c1 [Example 106, N-(1-phenyl-4-(3-(piperidin-1-yl)propyl)-1H-imidazol-2-yl)-3-(1H-pyrazol-4-yl)benzamide] | < 50 nM
O=C(Nc1nc(CCCCCC(=O)N2CCCCCC2)cn1-c1ccccc1)c1cccc(-c2ccc3[nH]ncc3c2)c1 [Example 241, N-(4-(6-(azepan-1-yl)-6-oxohexyl)-1-phenyl-1H-imidazol-2-yl)-3-(1H-indazol-5-yl)benzamide] | < 50 nM
CN1CCN(C(=O)CCCCCc2cn(-c3ccccc3)c(NC(=O)c3cccc(-c4ccc5[nH]ncc5c4)c3)n2)CC1 [Example 239, 3-(1H-indazol-5-yl)-N-(4-(6-(4-methylpiperazin-1-yl)-6-oxohexyl)-1-phenyl-1H-imidazol-2-yl)benzamide] | < 50 nM
C[C@@H]1CC[C@@H](C)N1C(=O)CCc1cn(-c2ccccc2)c(NC(=O)c2cccc(-c3cn[nH]c3)c2)n1 [Example 29, N-(4-(3-((2R,5R)-2,5-dimethylpyrrolidin-1-yl)-3-oxopropyl)-1-phenyl-1H-imidazol-2-yl)-3-(1H-pyrazol-4-yl)benzamide] | < 50 nM
O=C(CCc1cn(-c2ccccc2)c(NC(=O)c2cccc(-c3c[nH]nc3C(F)(F)F)c2)n1)Nc1ccccc1 [Example 3, N-(4-(3-oxo-3-(phenylamino)propyl)-1-phenyl-1H-imidazol-2-yl)-3-(3-(trifluoromethyl)-1H-pyrazol-4-yl)benzamide] | > 100 nM
Cn1ncc2cc(-c3cccc(C(=O)Nc4nc(CCCCCCN5CCOCC5)cn4-c4ccccc4)c3)ccc21 [Example 264, 3-(1-methyl-1H-indazol-5-yl)-N-(4-(6-morpholinohexyl)-1-phenyl-1H-imidazol-2-yl)benzamide] | > 100 nM
O=C(Nc1nc(CCCCN2CCCC2=O)cn1-c1ccccc1)c1cccc(-c2ccc3[nH]ncc3c2)c1 [Example 258, 3-(1H-indazol-5-yl)-N-(4-(4-(2-oxopyrrolidin-1-yl)butyl)-1-phenyl-1H-imidazol-2-yl)benzamide] | < 50 nM
Nc1ccc(-c2cccc(C(=O)Nc3nc(CCCCCC(=O)N4CCCCC4)cn3-c3ccccc3)c2)cn1 [Example 271, 3-(6-aminopyridin-3-yl)-N-(4-(6-oxo-6-(piperidin-1-yl)hexyl)-1-phenyl-1H-imidazol-2-yl)benzamide] | < 50 nM
O=C(Nc1nc(CCC(=O)N2CCCCC2)cn1-c1ccccc1)c1cccc(-c2cn[nH]c2)c1 [Example 12, N-(4-(3-oxo-3-(piperidin-1-yl)propyl)-1-phenyl-1H-imidazol-2-yl)-3-(1H-pyrazol-4-yl)benzamide] | < 50 nM
COC[C@H]1CCCN1C(=O)CCc1cn(-c2ccccc2)c(NC(=O)c2cccc(-c3cn[nH]c3)c2)n1 [Example 20, (R)—N-(4-(3-(2-(methoxymethyl)pyrrolidin-1-yl)-3-oxopropyl)-1-phenyl-1H-imidazol-2-yl)-3-(1H-pyrazol-4-yl)benzamide] | > 100 nM
